Test results reported in patent US20120288533A1, “PROTEIN-POLYSACCHARIDE CONJUGATES AND USE FOR ENCAPSULATING NUTRACEUTICALS FOR CLEAR BEVERAGE APPLICATIONS” (Technion Research and Development Foundation Ltd., priority 2011, published 2012).

Columns and labels:
[1] = Simulated gastric digestion using Nile red (NR adsorption to glass, with and without pepsin); assay type: in vitro ADME; conditions: pepsin:CN mass ratio 1:20, pH 2.5, 2 hrs at 37° C.
Description: NR stock solution in ethanol was prepared at a concentration of 0.16 mg/ml=502.6 μM. NR was added during vortexing to the conjugate, mixture or buffer solution, at a concentration of 1.3 μM, to minimize inner filtering effect in fluorescence measurements.
Free NR in aqueous solution adsorbs to the glass walls, which may serve as a convenient way to study its release behavior from nanocapsules. To examine whether NR adsorbs to glass when in water, NR was added to 1 ml of water in a glass vial to a final concentration of 1.3 μM. The vial was left for 2 hrs, then the water was transferred to a new glass vial, and 1 ml of acetone was added to the new vial. At the same time 2 ml of water:acetone (1:1 vol/vol) solution was added to the first vial. After 1 hr both solutions were read for florescence intensity at ex:570, em:645 which is the intensity peak at water:acetone 1:1. Concentration was calculated from the intensity using a NR in water: acetone (1:1) calibration curve.
Then pepsin was added to some of the samples at a concentration of 0.15 mg/ml, in order to reach pepsin: CN mass ratio of 1:20 according to the method by Mandalari et al.^79. […] After 1 hr the acetone: water solution with NR which had adsorbed to the glass was read for fluorescence intensity (ex:570, em:645). NR fluorescence was measured with time to validate that no bleaching occurred during the procedure (data not shown).

[2] = Particle size distribution by DLS, RPH / RPH-MD samples with and without CLA or VD, with and without homogenization; assay type: physicochemical; conditions: 0.5% ethanol
Description: The conjugate samples were characterized as follows. Two mg/ml (on a protein base) solutions were prepared from the dry heated samples of RPH with and without MD and compared to the unheated control. The RPH-MD powder was dissolved in a pH 7 PBS and stirred overnight for complete hydration. The samples were filtered through 0.45 μm syringe filters (polyvinylidene fluoride, Durapore filter (Millipore, Carrigtwohill, Co. Cork, Ireland).
Additionally, the HN RPH-MD co-assembled particles were analyzed at different concentrations of the VD or CLA.
The dispersion of VD with and without RPH-MD was homogenized by Micro DeBee (Bee International Inc. South Easton Mass., USA) ultra-high pressure homogenizer: process pressure: 20-25 kpsi, Orifice diameter: 0.1 mm. The sample composition was 0.1% protein, 0.5% ethanol, VD concentration 0.02 mg/ml, buffer PBS pH 7. The sample volume subjected to homogenization was 25 ml. The influence of the homogenization process on particles size was evaluated by DLS measurements performed 2 hr after the homogenization.

[3] = Protection of VD against acidic pH treatment (pH 2.5, 2 hr, RT) with RPH-MD, RP-HPLC; assay type: physicochemical; conditions: pH 2.5 for 2 hr at RT; initial VD 0.02 mg/ml, 0.5% ethanol, 0.1% w/w protein
Description: (§1) The protection conferred by the RPH-MD against HN deterioration with time was evaluated. Different shelf life conditions of temperature 4° C. or 23° C. and pH, neutral or acidic, were tested. Neutral pH conditions were obtained by a pH7 PBS. Acidic conditions for CLA were obtained by a pH 3 citric buffer. Acidic conditions (pH 2.5) for VD were obtained by addition of HCl.
(§2) Following the incubation of HN co-assembled samples under the above shelf life conditions, HN extraction was carried out. Then the HN concentration in the samples was quantified using reversed phase HPLC(RP-HPLC), 4.6×100 mm C18-C2 column, on an Akta basic HPLC system equipped with a 3 simultaneous wavelengths UV detector (GE Healthcare, Waukesha, Wis., USA). The volume of the injection loop was 100 μl, and the operation temperature was 24° C.
(§3) The concentration of the vitamin D was 0.02 mg/ml, a high dosage intended for simulating beverage concentrates, which are later diluted during bottling, but must be colloidally and chemically stable. […]
(§4) Vitamin D extraction and HPLC quantification was based on Kazmi et al^57. […] Operating conditions were: ambient temperature (24±1° C.); mobile phase was methanol: acetonitrile: water (49.5:49.5:1 v/v); flow rate was 0.3 ml/min; and the absorbance was measured at 254 nm and 228 nm.

[4] = Shelf life of VD at RT and 4° C. in pH 7 PBS with RPH-MD; assay type: physicochemical; conditions: after 22 days of simulated shelf life at neutral pH and 4° C.; VD 0.02 mg/ml, 0.5% ethanol, 0.1% protein
Description: as §1, §2, §3, §4

[5] = Simulated shelf life of CLA at RT in pH 7 PBS with RPH-MD; assay type: physicochemical; conditions: after 14 days, neutral pH (pH 7 PBS), CLA 0.09 mg/ml, 0.5% ethanol, 1% protein
Description: as §1, §2, §3
(§5) To extract CLA, isopropanol (0.5 ml) was added to 0.5 ml sample. […] The separation of CLA was performed with a mobile phase of acetonitrile/water/acetic acid (70/30/0.12, v/v/v) at a flow rate of 1.5 ml/min and CLA was detected at 234 nm, which was found optimal in a spectrum scan (not shown).

[6] = CLA protection under acidic conditions (pH 3, 4° C.) with RPH-MD, RP-HPLC; assay type: physicochemical; conditions: CLA 0.09 mg/ml, 0.5% ethanol, 1% protein
Description: as §1, §2, §3, §5

Molecule: CCN(CC)c1ccc2nc3c4ccccc4c(=O)cc-3oc2c1 [Nile Red (NR), Nile Red]
- effect of digestion with pepsin on binding of NR (in words) [1]: did not change the binding of NR to casein peptides

Molecule: Vitamin D3 [Vitamin D3 (VD3)]
- VD particle size fraction by DLS, without homogenization ([2]; 0.1% protein, 0.02 mg/ml VD, pH 7 PBS): 100-200 nm
- residual VD [3]: 50%
- residual VD [4]: 28%

Molecule: conjugated linoleic acid [CLA]
- residual percentage of CLA [5]: 0%
- CLA particle size by DLS ([2]; CLA in PBS pH 7 or 1% protein solutions, RPH-MD value at CLA 0.05-0.015 μg/ml): a few hundred
- residual percentage of CLA ([6]; after 1 day at pH 3.0 and 4° C.): about 20%
- residual percentage of CLA ([6]; after 4 days at pH 3.0 and 4° C.): ~0%
